PubChem BioAssay AID623861 (Sanford-Burnham Center for Chemical Genomics, 2012)
The source made the active and inactive calls.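 The calls were made as follows: active = compounds whose EC50 for boosting single-cell stem cell survival is at or below a set limit; inactive = the rest.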

Each molecule was assayed on human iPSC single-cell survival, ATP luminescence (assay: human iPSC survival promotion after dissociation – cell-based, luminescence, dose response (AID 623861)).

Which EC50 does the source give for `CC(C)CCNC(=O)c1onc(CSc2ccc(F)cc2)c1C(=O)NCCC(C)C` here?
Its EC50 is > 80 µM (inactive).

How did the EC50 turn out when `COc1ccc(OC)c(NC(=O)C(CC(C)C)NC(=O)C2CCCCC2)c1` (stereo not drawn) was run?
Its EC50 is > 80 µM (inactive).

For `CCn1c(Cl)c(C=O)s/c1=N\S(=O)(=O)c1ccccc1`, which EC50 is on record?
The EC50 was 24.8 µM (inactive).

How did the EC50 turn out when `CN(C)CCN(C(=O)c1ccc2ccccc2c1)c1nc2cc3c(cc2s1)OCO3` was run?
The EC50 was > 80 µM (inactive).

How did the EC50 turn out when `C1CCN(c2nc3nonc3nc2N2CCCC2)C1` was run?
Its EC50 is > 80 µM (inactive).

`CCCSc1nc(N2CCOCC2)c2c(c1C#N)CC(C)(C)SC2` was tested. Which EC50 did it give?
Its EC50 is 25.6 µM (inactive).

Which EC50 does the source give for `NC(=O)c1ccc(NC(=O)CCC(=O)c2cccs2)cc1` here?
Its EC50 is 9.86 µM.

How did the EC50 turn out when `Cc1nnc2n(C3CCCCC3)c(=O)c3c4c(sc3n12)COC(C)(C)C4` was run?
Its EC50 is 38.5 µM (inactive).

Which EC50 does the source give for `CC(OC(=O)c1ccc2c(=O)n3c(nc2c1)CCC3)C(=O)Nc1ccc(C(N)=O)cc1` (stereo not drawn) here?
The EC50 was 55.6 µM (inactive).

`C=C1C(=O)OC2CC(C)C3C=CC(=O)C3(C)C(O)C12` (stereo not drawn) was tested. Which EC50 did it give?
Its EC50 is 9.47 µM.

For `CCCc1nc(SCC(=O)Nc2nc3c(s2)CCCC3)c2ccccc2n1`, which EC50 is on record?
Its EC50 is > 80 µM (inactive).

With `Cc1cc(Cl)n2nc(C)c(-c3ccc(Cl)cc3)c2n1` as the molecule, how does the EC50 read?
The EC50 was > 80 µM (inactive).

For `CCOC1=C2[C@H](c3ccc(C)cc3)N(S(=O)(=O)c3ccc(C)cc3)C[C@H]2n2c(=O)n(-c3ccccc3)c(=O)n2C1`, which EC50 is on record?
The EC50 was > 80 µM (inactive).

`CC1(C)Cc2c(C#N)c(SCC(=O)c3ccccc3)nc(N3CCOCC3)c2CS1` was tested. Which EC50 did it give?
The EC50 was 13.4 µM.

Which EC50 does the source give for `O=C(Nc1ccncc1)c1cc(S(=O)(=O)N2CCOCC2)ccc1Cl` here?
Its EC50 is 20.4 µM (inactive).

For `CS(=O)(=O)N(Cc1cc2ccccc2[nH]c1=O)C1CCCCC1`, which EC50 is on record?
Its EC50 is > 80 µM (inactive).

With `COc1cccc(C2CC(=O)N3CN(c4cccc(Cl)c4C)CSC3=C2C#N)c1OC` (stereo not drawn) as the molecule, how does the EC50 read?
Its EC50 is > 80 µM (inactive).

`COC(=O)C1=C(C)N(C)C(C)=C(C(=O)OC)C1c1cccc(Br)c1` was tested. Which EC50 did it give?
The EC50 was > 80 µM (inactive).

How did the EC50 turn out when `CN(Cc1ccccc1)C(=O)CN1CCN(S(=O)(=O)c2ccccc2F)CC1` was run?
The EC50 was > 80 µM (inactive).

How did the EC50 turn out when `CCCCc1cc(=O)oc2cc(OCc3cc(OC)c(OC)c(OC)c3)c(Cl)cc12` was run?
Its EC50 is > 80 µM (inactive).

With `CCS(=O)(=O)c1ncc(Cl)c(C(=O)Nc2ccc(S(=O)(=O)N3CCCC(C)C3)cc2)n1` (stereo not drawn) as the molecule, how does the EC50 read?
The EC50 was > 80 µM (inactive).

How did the EC50 turn out when `CCN1C/C(=C\c2cccc([N+](=O)[O-])c2)C(=O)/C(=C/c2cccc([N+](=O)[O-])c2)C1` was run?
Its EC50 is 20 µM.

Which EC50 does the source give for `O=C(NCCCN1CCCCCC1)c1ccc(CS(=O)(=O)Cc2ccccc2F)o1` here?
The EC50 was > 80 µM (inactive).

`O=C(O)c1ccccc1C(=O)NCC(O)COCC1CC=CCC1` (stereo not drawn) was tested. Which EC50 did it give?
The EC50 was > 80 µM (inactive).

Which EC50 does the source give for `C=C1C(C)C2C(Cc3ccccc3)NC(=O)C23OC(=O)/C=C/C(O)CCCC(C)C/C=C/C3C1O` (stereo not drawn) here?
The EC50 was 11.5 µM.

`CC(C)C12CN3CC(C(C)C)(CN(C1)C3c1ccccc1O)C2=O` (stereo not drawn) was tested. Which EC50 did it give?
Its EC50 is > 80 µM (inactive).

`COC(=O)[C@]1(Cc2ccccc2)N[C@H](CN(C)C(=O)Nc2ccccc2)[C@@H]2C(=O)N(C)C(=O)[C@@H]21` was tested. Which EC50 did it give?
The EC50 was > 80 µM (inactive).

Which EC50 does the source give for `CCOc1ccc(S(=O)(=O)Nc2cccc(C(=O)N3CCN(c4ccc(OC)cc4)CC3)c2)cc1` here?
Its EC50 is > 80 µM (inactive).

For `COc1ccc(C(C#N)(CC(=O)O)c2cnccn2)cc1OC` (stereo not drawn), which EC50 is on record?
Its EC50 is > 80 µM (inactive).

`O=C(Nc1ccncc1)c1ccccc1[N+](=O)[O-]` was tested. Which EC50 did it give?
Its EC50 is 52.6 µM (inactive).

How did the EC50 turn out when `CN1Cc2cnnn2-c2ccccc2C1C#N` (stereo not drawn) was run?
Its EC50 is 25.7 µM (inactive).

With `O=c1c(Cl)c(Cl)cnn1Cc1nnc(-c2ccccc2Br)o1` as the molecule, how does the EC50 read?
Its EC50 is 8.37 µM.

For `CCCn1c(SCc2ccccc2)nc2c1c(=O)[nH]c(=O)n2C`, which EC50 is on record?
The EC50 was > 80 µM (inactive).

How did the EC50 turn out when `CN(C)c1ccc(-c2ccnc3c2CC(C)(C(=O)Nc2ccc(Cl)c(C(F)(F)F)c2)O3)cc1` (stereo not drawn) was run?
Its EC50 is > 80 µM (inactive).

How did the EC50 turn out when `CCOC(=O)c1c(-c2cc(OC)c(OC)c(OC)c2)csc1N` was run?
The EC50 was > 80 µM (inactive).

How did the EC50 turn out when `COCCNC(=O)c1ccc(-c2cn[nH]c2)c2ccoc12` was run?
The EC50 was 11.2 µM.

`N#C/C(=C/c1cccc([N+](=O)[O-])c1)c1nnc2n1CCCCC2` was tested. Which EC50 did it give?
Its EC50 is 7.37 µM.

How did the EC50 turn out when `O=C(Nc1ccncc1)c1c(F)cccc1F` was run?
The EC50 was 3.27 µM.

For `Cc1ccc(-n2nc(C)c3c(C)cc(=O)[nH]c32)cc1`, which EC50 is on record?
The EC50 was > 80 µM (inactive).

How did the EC50 turn out when `CN1C/C(=C/c2cccnc2)C(=O)/C(=C/c2cccnc2)C1` was run?
Its EC50 is 13.7 µM.

With `Cc1ccc(NS(=O)(=O)c2ccc3c(c2)CC(=O)N3)c(C)c1` as the molecule, how does the EC50 read?
Its EC50 is > 80 µM (inactive).

How did the EC50 turn out when `O=C1/C(=C/c2ccncc2)CCC/C1=C\c1ccncc1` was run?
Its EC50 is 10.1 µM.

For `CCCCCCn1c(SCCN2CCOCC2)nc2c1c(=O)[nH]c(=O)n2C`, which EC50 is on record?
The EC50 was > 80 µM (inactive).

How did the EC50 turn out when `O=C(O)c1cc(C(=O)C2CC2)c[nH]1` was run?
The EC50 was > 80 µM (inactive).

How did the EC50 turn out when `CCCCn1c(=O)[nH]c(=O)c2c1nc(Cn1ncc(Cl)c(Cl)c1=O)n2CCC` was run?
The EC50 was 5.62 µM.

Which EC50 does the source give for `COc1ccc2c(c1)c1ccc3c(c1n2C)C(=O)C=CC3=O` here?
Its EC50 is > 80 µM (inactive).

How did the EC50 turn out when `C=C1[C@@H](C)[C@H]2[C@H](Cc3ccccc3)NC(=O)[C@]23OC(=O)/C=C/[C@H](O)CCC[C@@H](C)C/C=C/[C@H]3[C@@H]1O` was run?
The EC50 was 21.7 µM (inactive).

For `CNc1cc(Cl)c2nonc2c1[N+](=O)[O-]`, which EC50 is on record?
Its EC50 is 12.9 µM.
